Reference: ChEMBL document CHEMBL4483862, “Open-source discovery of chemical leads for next-generation chemoprotective antimalarials” (2018)

System: Plasmodium berghei
Experiment: Luciferase/luciferin-expressing antifolate-resistant parasites were used to infect a culture of HepG2 cells that were pre-incubated with compounds. Infected hepatocytes emit light due to the luciferase reaction. Assay results are presented as the percent inhibition of light emission compared to control. […]
Format: functional
Settings: sporozoite; for IC90: read-out: LUCIFERASE INFECTION ASSAY - IC90
[1] = read-out: LUCIFERASE INFECTION ASSAY - IC50

Structure (SMILES) | IC90 | other results
O=C(c1[nH]nc2ccccc12)N1CCN(CCOc2ccc(Cl)cc2)CC1 | > 10 µM | IC50 (HEPG2TOX_HILL_SLOPE 12.2, HEPG2TOX_R_SQUARED 0.374, PBLUC_HILL_SLOPE 13.5, 22.4, PBLUC_R_SQUARED 0.492, 0.389, read-out: LUCIFERASE INFECTION ASSAY - IC50): 9.12 µM
O=C(Nc1ccc(F)cc1)c1csc(C(O)c2cccc(Cl)c2)n1 (configuration not stated) | > 10 µM | IC50 [1]: > 10 µM
O=c1c(Cl)c(Cl)cnn1-c1nc2ccccc2[nH]1 | 1.65 µM | IC50 (HEPG2TOX_HILL_SLOPE 2.11, HEPG2TOX_R_SQUARED 0.958, PBLUC_HILL_SLOPE 7.93, PBLUC_R_SQUARED 0.809, read-out: LUCIFERASE INFECTION ASSAY - IC50): 1.25 µM
CCN(CC)S(=O)(=O)c1cc(C(=O)Nc2nc3ccccc3[nH]2)n(C)c1 | 9.54 µM | IC50 (HEPG2TOX_HILL_SLOPE 9.29, HEPG2TOX_R_SQUARED 0.829, PBLUC_HILL_SLOPE 13.1, PBLUC_R_SQUARED 0.63, read-out: LUCIFERASE INFECTION ASSAY - IC50): 8.06 µM
CCOc1ccc(CN2CCN(C(=O)Cc3c(C)nn(C)c3C)CC2)cc1 | > 10 µM | IC50 (PBLUC_HILL_SLOPE 2.6, PBLUC_R_SQUARED 0.21, read-out: LUCIFERASE INFECTION ASSAY - IC50): > 10 µM
C=CCNC(=O)CSc1nccc(-c2sc3sc(Br)c(C)c3c2C)n1 | > 7.26 µM | IC50 (HEPG2TOX_HILL_SLOPE 7.83, HEPG2TOX_R_SQUARED 0.735, PBLUC_HILL_SLOPE 0.44, PBLUC_R_SQUARED 0.419, read-out: LUCIFERASE INFECTION ASSAY - IC50): 2.88 µM
CCOc1ccc(C2NC(=O)NC(C)=C2C(=O)OCC2CCCO2)cc1OC (configuration not stated) | > 8.45 µM | IC50 [1]: > 8.45 µM
CCOC(=O)c1csc(-c2sc(SC)c(C(C)=O)c2C)n1 | > 9.66 µM | IC50 [1]: > 9.66 µM
N#Cc1ccc(NC(=O)C2CC2(Cl)Cl)cc1 (configuration not stated) | > 10 µM | IC50 [1]: > 10 µM
COCCOc1ccc(C(F)(F)F)cc1NC(=O)Nc1ccc(Cl)c(Cl)c1 | 6.68 µM | IC50 (PBLUC_HILL_SLOPE 3.42, PBLUC_R_SQUARED 0.295, read-out: LUCIFERASE INFECTION ASSAY - IC50): 3.52 µM
COc1cc(-c2ccc3ncc(-c4cccc(C(C)=O)c4)n3n2)cc(OC)c1OC | 1.39 µM | IC50 (HEPG2TOX_HILL_SLOPE 2.19, HEPG2TOX_R_SQUARED 0.885, PBLUC_HILL_SLOPE 9.54, PBLUC_R_SQUARED 0.57, read-out: LUCIFERASE INFECTION ASSAY - IC50): 1.11 µM
CC1CCc2[nH]c3ccc(C(=O)Nc4ccccc4N4CCCCC4)cc3c2C1 (configuration not stated) | 0.818 µM | IC50 (FFLUC_HILL_SLOPE 10.4, FFLUC_R_SQUARED 0.246, PBLUC_HILL_SLOPE 2.51, PBLUC_R_SQUARED 0.903, read-out: LUCIFERASE INFECTION ASSAY - IC50): 0.341 µM
Cc1nn(-c2ccccc2)c2nc(Cl)c(C3Nc4ccccc4-c4nc5ccccc5n43)cc12 (configuration not stated) | > 10 µM | IC50 (FFLUC_HILL_SLOPE 11.9, FFLUC_R_SQUARED 0.792, read-out: LUCIFERASE INFECTION ASSAY - IC50): > 10 µM
O=S(=O)(Oc1cccc2[nH]ccc12)c1ccc(Cl)cc1Cl | > 9.64 µM | IC50 [1]: > 9.64 µM
CC(C)(C)c1ccc(Oc2ccc(/C=C/C(=O)c3ccc(NC4=NCCCS4)cc3)cc2[N+](=O)[O-])cc1 | > 10 µM | IC50 (PBLUC_HILL_SLOPE 13, PBLUC_R_SQUARED 0.461, read-out: LUCIFERASE INFECTION ASSAY - IC50): 8.77 µM
NC(Cc1ccc(F)cc1)c1csc(NC(=O)c2ccc(F)c(Cl)c2)n1 (configuration not stated) | 5.68 µM | IC50 (PBLUC_HILL_SLOPE 84.1, PBLUC_R_SQUARED 0.0637, read-out: LUCIFERASE INFECTION ASSAY - IC50): 5.54 µM
O=C(c1cnc(Nc2cccc(Oc3ccccc3)c2)[nH]1)c1ccccc1F | 3.36 µM | IC50 (HEPG2TOX_HILL_SLOPE 2.89, HEPG2TOX_R_SQUARED 0.712, PBLUC_HILL_SLOPE 12, PBLUC_R_SQUARED 0.715, read-out: LUCIFERASE INFECTION ASSAY - IC50): 2.8 µM
c1ccc2sc(-c3nc4ccccc4s3)nc2c1 | > 10 µM | IC50 (PBLUC_HILL_SLOPE 0.811, PBLUC_R_SQUARED 0.754, read-out: LUCIFERASE INFECTION ASSAY - IC50): 1.16 µM
C(=C(c1nc2ccccc2s1)c1nc2ccccc2s1)c1cccnc1 | 9.07 µM | IC50 (HEPG2TOX_HILL_SLOPE 18.8, HEPG2TOX_R_SQUARED 0.503, PBLUC_HILL_SLOPE 12.3, 18.3, PBLUC_R_SQUARED 0.0559, 0.217, read-out: LUCIFERASE INFECTION ASSAY - IC50): 7.82 µM
COc1ccc(CCNC(=O)c2ccc3cc[nH]c3c2)cc1 | > 11.2 µM | IC50 (PBLUC_HILL_SLOPE 0.599, PBLUC_R_SQUARED 0.245, read-out: LUCIFERASE INFECTION ASSAY - IC50): 4.75 µM
CC(Nc1ccc(Oc2ccc(Br)cc2)cc1)C(=O)Nc1ccc(S(N)(=O)=O)cc1 (configuration not stated) | > 10 µM | IC50 (FFLUC_HILL_SLOPE 6.08, FFLUC_R_SQUARED 0.0812, PBLUC_HILL_SLOPE 2.58, PBLUC_R_SQUARED 0.863, read-out: LUCIFERASE INFECTION ASSAY - IC50): 4.82 µM

Structure (SMILES) | IC90 | other results
Cc1ccc(C)c(-c2nn(CC(=O)N3c4ccccc4CC3C)c(=O)c3ccccc23)c1 (configuration not stated) | > 10 µM | IC50 (HEPG2TOX_HILL_SLOPE 7.77, HEPG2TOX_R_SQUARED 0.247, read-out: LUCIFERASE INFECTION ASSAY - IC50): > 10 µM
COc1ccc(CNC(=O)CCOc2ccc(C(C)(C)C)cc2)cc1OC | > 10 µM | IC50 (HEPG2TOX_HILL_SLOPE 0.891, HEPG2TOX_R_SQUARED 0.4, PBLUC_HILL_SLOPE 0.658, PBLUC_R_SQUARED 0.48, read-out: LUCIFERASE INFECTION ASSAY - IC50): 4.6 µM
CC(C)CN1/C(=C\c2cccc3[nH]ccc23)C(=O)c2ccccc2S1(=O)=O | > 8.67 µM | IC50 (FFLUC_HILL_SLOPE 2.19, FFLUC_R_SQUARED 0.818, HEPG2TOX_HILL_SLOPE 2.77, HEPG2TOX_R_SQUARED 0.93, read-out: LUCIFERASE INFECTION ASSAY - IC50): > 8.67 µM
Cc1c(C(=O)OCc2coc(-c3cccs3)n2)sc2nc3n(c(=O)c12)CCC3 | 7.63 µM | IC50 (PBLUC_HILL_SLOPE 4.64, PBLUC_R_SQUARED 0.43, read-out: LUCIFERASE INFECTION ASSAY - IC50): 4.75 µM
c1ccc(C(Nc2ncnc3ccsc23)c2cccs2)cc1 (configuration not stated) | 2.58 µM | IC50 [1]: 1.14 µM
COc1ccccc1N1C(=O)C=CC1=O | > 16.2 µM | IC50 [1]: > 16.2 µM
CC(C)N(C(=O)CSC1=NC(c2ccccc2)C2=C(N1)/C(=C/c1ccccc1)CCC2)c1ccccc1 (configuration not stated) | 9.39 µM | IC50 (FFLUC_HILL_SLOPE 9.66, FFLUC_R_SQUARED 0.711, HEPG2TOX_HILL_SLOPE 8.12, HEPG2TOX_R_SQUARED 0.779, PBLUC_HILL_SLOPE 2.67, PBLUC_R_SQUARED 0.724, read-out: LUCIFERASE INFECTION ASSAY - IC50): 4.12 µM
Nc1nnc(SCc2c(F)cccc2Cl)[nH]1 | > 12.8 µM | IC50 [1]: > 12.8 µM
Cc1cccc(NC(=O)N2CCC3(CC2)OCc2cc(-c4ccc(OC(F)(F)F)cc4)ccc2O3)c1 | > 6.62 µM | IC50 [1]: > 6.62 µM
Cc1ccccc1OCC(O)CN(CC(C)C)CC(C)C (configuration not stated) | > 10 µM | IC50 (PBLUC_HILL_SLOPE 6.96, PBLUC_R_SQUARED 0.782, read-out: LUCIFERASE INFECTION ASSAY - IC50): 8.86 µM
O=C(CCCc1cccs1)Nc1nnc[nH]1 | > 10 µM | IC50 (PBLUC_HILL_SLOPE 0.436, PBLUC_R_SQUARED 0.0408, read-out: LUCIFERASE INFECTION ASSAY - IC50): > 10 µM
c1ccc(-c2cc3c(SCc4cscn4)ncnc3s2)cc1 | 3.71 µM | IC50 (PBLUC_HILL_SLOPE 12.2, PBLUC_R_SQUARED 0.61, read-out: LUCIFERASE INFECTION ASSAY - IC50): 3.1 µM
CN(Cc1nc2ccccc2[nH]1)c1nccc(C(F)(F)F)n1 | > 10 µM | IC50 [1]: > 10 µM
Cc1nc(N2CCCCC2)sc1C(=O)c1ccc(SCc2cc(Cl)cc3c2OCOC3)c([N+](=O)[O-])c1 | > 10 µM | IC50 [1]: > 10 µM
CCCCOC1(c2ccc(C)cc2)N=C(SCC(=O)NCC(C)C)NN=C1c1ccc(C)cc1 (configuration not stated) | > 10 µM | IC50 (PBLUC_HILL_SLOPE 3.83, PBLUC_R_SQUARED 0.417, read-out: LUCIFERASE INFECTION ASSAY - IC50): 6.12 µM
Cn1ccc2cc(-c3cn4c(-c5cccc(O)c5)cnc4cn3)ccc21 | 3.11 µM | IC50 (HEPG2TOX_HILL_SLOPE 1.21, HEPG2TOX_R_SQUARED 0.948, PBLUC_HILL_SLOPE 1.63, PBLUC_R_SQUARED 0.761, read-out: LUCIFERASE INFECTION ASSAY - IC50): 0.805 µM
CN(C)c1ccc(NC(=O)CCc2nc(-c3ccc(Cl)cc3)no2)c(C#N)c1Cl | > 7.67 µM | IC50 (HEPG2TOX_HILL_SLOPE 10.4, HEPG2TOX_R_SQUARED 0.728, PBLUC_HILL_SLOPE 0.523, PBLUC_R_SQUARED 0.342, read-out: LUCIFERASE INFECTION ASSAY - IC50): > 7.67 µM
CC(=O)c1cccc(-c2cnc3ccc(-c4cccc(C(F)(F)F)c4)nn23)c1 | 4.27 µM | IC50 (HEPG2TOX_HILL_SLOPE 8.49, HEPG2TOX_R_SQUARED 0.595, PBLUC_HILL_SLOPE 2.29, PBLUC_R_SQUARED 0.849, read-out: LUCIFERASE INFECTION ASSAY - IC50): 1.64 µM
COc1cc2c(cc1OC)C1(NCC2)C(=O)Nc2ccccc21 (configuration not stated) | > 10 µM | IC50 [1]: > 10 µM
Cc1ccccc1CNC(=O)c1ccc(NC(=O)c2ccco2)s1 | > 10 µM | IC50 (HEPG2TOX_HILL_SLOPE 9.39, HEPG2TOX_R_SQUARED 0.787, PBLUC_HILL_SLOPE 2.67, PBLUC_R_SQUARED 0.485, read-out: LUCIFERASE INFECTION ASSAY - IC50): 5.78 µM
